≈ marks a conversion by molar mass, not a printed value. Calls of active or inactive are those of the source. The calls are words filed in the database; no cut-off is given here.

The subject of data set [1] is Mycobacterium tuberculosis. The experiment in a line: Antitubercular activity against Mycobacterium tuberculosis H37Rv at 12.5 ug/mL by MABA assay. It counts as functional, organism-based. Background: The colour change of resazurin is a common sign of viable cells or microbes.
Data set [2] has as its system Mycobacterium tuberculosis. The experiment in a line: Antitubercular activity against Mycobacterium tuberculosis H37Rv by Agar dilution method. Format: functional. On the technique in general: In agar dilution, organisms are placed on agar that contains the substance at set levels.
In data set [3] the test system is Mycobacterium tuberculosis. Briefly: Antitubercular activity against Mycobacterium tuberculosis H37Rv by MABA assay. Format: functional.
A further data set deals with Vero. Briefly: Cytotoxicity against Vero cells after 3 days. Conditions: chlorocebus sabaeus, 72 h. It counts as cell-based.

For the molecule `CN(C)CCOc1ccc(C(c2ccccc2)c2ccc(Cl)cc2)c2ccccc12` (stereo unspecified), the result in data set [1] was inactive. In addition, the minimal inhibitory concentration (MIC) – broadly, the lowest concentration that inhibits growth of the organism – in data set [2] is more than 12.5 µg/mL.
As for `CN(C)CCOc1ccc2ccccc2c1C(c1ccccc1)c1ccc(F)cc1` (stereo unspecified), the MIC in data set [3] was found to be 3.12 µg/mL (≈ 7.81 µM); in data set [2] it was 6.25 µg/mL (≈ 15.6 µM).
The matching figures for `Clc1ccc(C(c2ccccc2)c2c(OCCN3CCCC3)ccc3ccccc23)cc1` (stereo unspecified): 3.12 µg/mL (≈ 7.06 µM) and 6.25 µg/mL (≈ 14.1 µM).
As for `CCN(CC)CCOc1ccc(C(c2ccccc2)c2ccc(F)cc2)c2ccccc12` (stereo unspecified), the result in data set [1] was inactive. In data set [2], this molecule came in with an MIC of more than 12.5 µg/mL.
Regarding `CN(C)CCOc1ccc2ccccc2c1C(c1ccccc1)c1ccc(Cl)cc1` (stereo unspecified), the minimum inhibitory concentration (MIC) amounted to 3.12 µg/mL (≈ 7.5 µM) in data set [3] and 6.25 µg/mL (≈ 15 µM) in data set [2].
With `CCN(CC)CCOc1ccc(C(c2ccccc2)c2ccccc2)c2ccccc12`, the minimum inhibitory concentration (MIC) in data set [3] worked out at 6.25 µg/mL (≈ 15.3 µM); in data set [2], 12.5 µg/mL (≈ 30.5 µM).
In the case of `c1ccc(C(c2ccccc2)c2c(OCCN3CCCC3)ccc3ccccc23)cc1`, the MIC in data set [3] turned out to be 6.25 µg/mL (≈ 15.3 µM); in data set [2], 3.12 µg/mL (≈ 7.66 µM). Moreover, in the data set on Vero, the Activity result is recorded as “Toxic”.
On to `CN(C)CCOc1ccc(C(c2ccccc2)c2ccc(F)cc2)c2ccccc12` (stereo unspecified), for which the outcome in data set [1] was inactive. The same molecule yielded an MIC in data set [2] of more than 12.5 µg/mL.
Turning to `CN(C)CCOc1ccc(C(c2ccccc2)c2ccccc2)c2ccccc12`, the MIC in data set [3] stood at 12.5 µg/mL (≈ 32.8 µM); in data set [2], 6.25 µg/mL (≈ 16.4 µM).
As to `Fc1ccc(C(c2ccccc2)c2c(OCCN3CCCC3)ccc3ccccc23)cc1` (stereo unspecified), the MIC in data set [3] was determined as 3.12 µg/mL (≈ 7.33 µM); in data set [2], 6.25 µg/mL (≈ 14.7 µM).
In the case of `CCN(CC)CCOc1ccc(C(c2ccccc2)c2ccc(Cl)cc2)c2ccccc12` (stereo unspecified), the MIC in data set [3] and in data set [2] was 12.5 µg/mL (≈ 28.2 µM) in each case.
Take `Clc1ccc(C(c2ccccc2)c2ccc(OCCN3CCCCCC3)c3ccccc23)cc1` (stereo unspecified): the result in data set [1] was inactive. Besides, in data set [2], the minimum inhibitory concentration (MIC) was more than 12.5 µg/mL.
On the same counts, the results for `Clc1ccc(C(c2ccccc2)c2ccc(OCCN3CCCCC3)c3ccccc23)cc1` (stereo unspecified) are “inactive” and 12.5 µg/mL (≈ 27.4 µM).
Turning to `c1ccc(C(c2ccccc2)c2c(OCCN3CCCCC3)ccc3ccccc23)cc1`, the results for the MIC in data set [3] and in data set [2] were 6.25 µg/mL (≈ 14.8 µM) and 3.12 µg/mL (≈ 7.4 µM), respectively. Moreover, the Activity result with Vero is listed as “Toxic”.
Consider `CN(C)CCOc1ccc2ccccc2c1C(c1ccccc1)c1ccccc1`, for which the values for the MIC in data set [3] and in data set [2] were 6.25 µg/mL (≈ 16.4 µM) and 3.12 µg/mL (≈ 8.18 µM), respectively. The Activity entry in the data set on Vero is reported as “Toxic”.
In the case of `Fc1ccc(C(c2ccccc2)c2ccc(OCCN3CCCCC3)c3ccccc23)cc1` (stereo unspecified), the minimal inhibitory concentration (MIC) in data set [3] and in data set [2] was 12.5 µg/mL (≈ 28.4 µM) each time.
As for `c1ccc(C(c2ccccc2)c2ccc(OCCN3CCCCCC3)c3ccccc23)cc1`, the minimal inhibitory concentration (MIC) in data set [3] and in data set [2] was 12.5 µg/mL (≈ 28.7 µM) throughout.
For the molecule `c1ccc(C(c2ccccc2)c2c(OCCN3CCCCCC3)ccc3ccccc23)cc1`, the results for the minimum inhibitory concentration (MIC) in data set [3] and in data set [2] were 6.25 µg/mL (≈ 14.3 µM) and 3.12 µg/mL (≈ 7.16 µM), respectively. Moreover, the Activity entry with Vero is recorded as “Toxic”.
With `CO[C@H]1/C=C/O[C@@]2(C)Oc3c(C)c(O)c4c(O)c(c(/C=N/N5CCN(C)CC5)c(O)c4c3C2=O)NC(=O)/C(C)=C\C=C\[C@H](C)[C@H](O)[C@@H](C)[C@@H](O)[C@@H](C)[C@H](OC(C)=O)[C@@H]1C` [RIFAMPIN], the MIC in data set [3] and in data set [2] was 0.2 µg/mL (≈ 0.243 µM) each time.
In the case of `CCN(CC)CCOc1ccc2ccccc2c1C(c1ccccc1)c1ccc(Cl)cc1` (stereo unspecified), the MIC amounted to 3.12 µg/mL (≈ 7.03 µM) in data set [3] and 6.25 µg/mL (≈ 14.1 µM) in data set [2].
In the case of `Fc1ccc(C(c2ccccc2)c2ccc(OCCN3CCCC3)c3ccccc23)cc1` (stereo unspecified), the minimal inhibitory concentration (MIC) in data set [3] was found to be 6.25 µg/mL (≈ 14.7 µM); in data set [2], 12.5 µg/mL (≈ 29.4 µM).
Turning to `CCN(CC)CCOc1ccc2ccccc2c1C(c1ccccc1)c1ccccc1`, the MIC in data set [3] stood at 6.25 µg/mL (≈ 15.3 µM); in data set [2], 3.12 µg/mL (≈ 7.62 µM). For the same molecule, in the data set on Vero, the Activity entry was “Toxic”.
In the case of `c1ccc(C(c2ccccc2)c2ccc(OCCN3CCCCC3)c3ccccc23)cc1`, the figures for the MIC in data set [3] and in data set [2] were 12.5 µg/mL (≈ 29.7 µM) and more than 12.5 µg/mL, respectively.
For the molecule `Fc1ccc(C(c2ccccc2)c2c(OCCN3CCCCCC3)ccc3ccccc23)cc1` (stereo unspecified), the MIC turned out to be 6.25 µg/mL (≈ 13.8 µM) in data set [3] and 12.5 µg/mL (≈ 27.6 µM) in data set [2].
On to `NNC(=O)c1ccncc1` [ISONIAZID], for which the MIC in data set [3] and in data set [2] was 0.025 µg/mL (≈ 0.182 µM) in each case.
Consider `Clc1ccc(C(c2ccccc2)c2c(OCCN3CCCCCC3)ccc3ccccc23)cc1` (stereo unspecified), for which the MIC in data set [3] worked out at 3.12 µg/mL (≈ 6.64 µM); in data set [2], 6.25 µg/mL (≈ 13.3 µM).
`Clc1ccc(C(c2ccccc2)c2ccc(OCCN3CCCC3)c3ccccc23)cc1` (stereo unspecified): the outcome in data set [1] was inactive. In addition, 12.5 µg/mL (≈ 28.3 µM) was the least that counted as inhibitory in data set [2] (MIC).
On to `Fc1ccc(C(c2ccccc2)c2ccc(OCCN3CCCCCC3)c3ccccc23)cc1` (stereo unspecified), for which the MIC in data set [3] is 12.5 µg/mL (≈ 27.6 µM); in data set [2], more than 12.5 µg/mL.
`CCN(CC)CCOc1ccc2ccccc2c1C(c1ccccc1)c1ccc(F)cc1` (stereo unspecified): the MIC is 6.25 µg/mL (≈ 14.6 µM) in data set [3] and 3.12 µg/mL (≈ 7.3 µM) in data set [2]. Besides, in the data set with Vero, the Activity result is “Toxic”.
On the same counts, the results for `Fc1ccc(C(c2ccccc2)c2c(OCCN3CCCCC3)ccc3ccccc23)cc1` (stereo unspecified) are 6.25 µg/mL (≈ 14.2 µM), 3.12 µg/mL (≈ 7.1 µM) and “Toxic”.
On to `Clc1ccc(C(c2ccccc2)c2c(OCCN3CCCCC3)ccc3ccccc23)cc1` (stereo unspecified), for which the MIC in data set [3] is 3.12 µg/mL (≈ 6.84 µM); in data set [2] it was 6.25 µg/mL (≈ 13.7 µM).
On the same counts, the results for `c1ccc(C(c2ccccc2)c2ccc(OCCN3CCCC3)c3ccccc23)cc1` are 6.25 µg/mL (≈ 15.3 µM) and 12.5 µg/mL (≈ 30.7 µM).

The values above are taken from ChEMBL document CHEMBL1139800, “Design, synthesis and antitubercular activity of diarylmethylnaphthol derivatives” (Bioorg Med Chem Lett, 2007).
